Measurements: PubChem BioAssay AID330 (DTP/NCI, 2004)
Where “and” joins values, the source holds several entries; their conditions need not be identical. Identical values can stand only once. Toxic doses and inconclusive results are not listed. How the source made its calls: active means survival T/C of 150% or more; inactive means T/C below 125% in these data.

Tested on: P388 leukemia ip, CD2F1 mice, survival T/C
Assay: NCI In Vivo Anticancer Drug Screen. Data for tumor model P388 Leukemia (intraperitoneal) in CD2F1 (CDF1) mice
Details: endpoint: median survival time, higher = longer survival
In short: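 Mice carrying the transplanted tumor received test compound or vehicle. Survival was recorded in each group, and the value is the treated-group measurement divided by that of the vehicle-treated control group.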

[1] = dose: 50.0 mg/kg/injection, schedule: Q01DX005 (ip), vehicle: saline with Tween-80
[2] = dose: 50.0 mg/kg/injection, schedule: Q01DX009 (ip), vehicle: Klucel (hydroxypropylcellulose) (HPC)
[3] = dose: 100.0 mg/kg/injection, schedule: Q01DX009 (ip), vehicle: Klucel (hydroxypropylcellulose) (HPC)
[4] = dose: 200.0 mg/kg/injection, schedule: Q01DX009 (ip), vehicle: Klucel (hydroxypropylcellulose) (HPC)
[5] = dose: 12.5 mg/kg/injection, schedule: Q01DX009 (ip), vehicle: saline
[6] = dose: 25.0 mg/kg/injection, schedule: Q01DX009 (ip), vehicle: saline
[7] = dose: 50.0 mg/kg/injection, schedule: Q01DX009 (ip), vehicle: saline
[8] = dose: 100.0 mg/kg/injection, schedule: Q01DX009 (ip), vehicle: saline
[9] = dose: 25.0 mg/kg/injection, schedule: Q01DX009 (ip), vehicle: saline with Tween-80
[10] = dose: 100.0 mg/kg/injection, schedule: Q01DX009 (ip), vehicle: saline with Tween-80
[11] = dose: 6.25 mg/kg/injection, schedule: Q01DX009 (ip), vehicle: saline with Tween-80
[12] = dose: 12.5 mg/kg/injection, schedule: Q01DX009 (ip), vehicle: saline with Tween-80
[13] = dose: 50.0 mg/kg/injection, schedule: Q01DX009 (ip), vehicle: saline with Tween-80
[14] = dose: 200.0 mg/kg/injection, schedule: Q01DX009 (ip), vehicle: saline with Tween-80

Measured: T/C

CCCCCCN=Cc1c(O)c(O)c(C(C)C)c2cc(C)c(-c3c(C)cc4c(C(C)C)c(O)c(O)c(C=NCCCCCC)c4c3O)c(O)c12
inactive: dose: 12.0 mg/kg/injection, schedule: Q01DX005 (ip), vehicle: saline with Tween-80 100 % of control | dose: 25.0 mg/kg/injection, schedule: Q01DX005 (ip), vehicle: saline with Tween-80 92 % of control | [1] 96 % of control

O=c1ccn2c(=O)n1CCCCn1cnc3ncnc(c31)SCCC2
inactive: dose: 50.0 mg/kg/injection, schedule: Q01DX001 (ip), vehicle: Klucel (hydroxypropylcellulose) (HPC) 94 % of control | dose: 100.0 mg/kg/injection, schedule: Q01DX001 (ip), vehicle: Klucel (hydroxypropylcellulose) (HPC) 86 % of control | dose: 200.0 mg/kg/injection, schedule: Q01DX001 (ip), vehicle: Klucel (hydroxypropylcellulose) (HPC) 90 % of control | dose: 400.0 mg/kg/injection, schedule: Q01DX001 (ip), vehicle: Klucel (hydroxypropylcellulose) (HPC) 90 % of control

CSc1ccccc1C(=S)N1CCOCC1
inactive: dose: 100.0 mg/kg/injection, schedule: Q01DX001 (ip), vehicle: saline with Tween-80 100 % of control | dose: 200.0 mg/kg/injection, schedule: Q01DX001 (ip), vehicle: saline with Tween-80 90 % of control | dose: 400.0 mg/kg/injection, schedule: Q01DX001 (ip), vehicle: saline with Tween-80 109 % of control

N#CC1C(=O)NC(=O)C(C#N)C1c1c(Cl)cccc1Cl (stereo unspecified)
inactive: [2] 101 % of control | [3] 99 % of control | [4] 99 % of control

CCCCN=C(N)NN=C(c1ccc(C)cc1)c1ccc(C)cc1
inactive: dose: 25.0 mg/kg/injection, schedule: Q04DX002 (ip), vehicle: saline with Tween-80 102 % of control | dose: 50.0 mg/kg/injection, schedule: Q04DX002 (ip), vehicle: saline with Tween-80 99 % of control

COc1ccc(/C(C#N)=C/c2ccncc2)cc1OC
inactive: [5] 102 % of control | [6] 97 % of control | [7] 101 % of control | [8] 101 % of control

NOCc1cccc(Cl)c1
inactive: [9] 87 % of control | [10] 87 % of control

COC(=O)CCC1=CC(=O)C(OC)=CC1=O
inactive: [11] 110 % of control | [12] 97 % of control | [9] 99 % of control

C1CCCc2c(-c3noc4c3CCCCCC4)noc2CC1
inactive: dose: 60.0 mg/kg/injection, schedule: Q01DX005 (ip), vehicle: saline 98 % of control | dose: 120.0 mg/kg/injection, schedule: Q01DX005 (ip), vehicle: saline 99 % of control | dose: 240.0 mg/kg/injection, schedule: Q01DX005 (ip), vehicle: saline 108 % of control

O=C(O)CC12CCC(CC1)OC2=O
inactive: [7] 100 % of control | [8] 106 % of control | dose: 200.0 mg/kg/injection, schedule: Q01DX009 (ip), vehicle: saline 97 % of control

CC(=O)Nc1ccc(C(C)=O)cc1
inactive: [13] 93 % of control | [10] 89 % of control | [14] 94 % of control

CCOC(=O)c1cc(=O)n(C)c2ccc(OCC)cc12
inactive: [10] 90 % of control | [14] 95 % of control | dose: 400.0 mg/kg/injection, schedule: Q01DX009 (ip), vehicle: saline with Tween-80 90 % of control

O=C1CSC(=Nc2ccccc2)N1c1ccc(-n2c(-c3ccc(N=Cc4ccc(Cl)cc4)cc3)nc3ccccc3c2=O)cc1
inactive: dose: 60.0 mg/kg/injection, schedule: Q01DX005 (ip), vehicle: Klucel (hydroxypropylcellulose) (HPC) 92 % of control

CC(C)(C)OC(=O)NCCCCC(NC(=O)OC(C)(C)C)C(=O)O (stereo unspecified)
inactive: [13] 102 % of control | [10] 101 % of control | [14] 92 % of control

CC(=O)OCC1=CC2OC(=O)C3=COC(OC4OC(CO)C(O)C(O)C4O)C1C32 (stereo unspecified)
inactive: [5] 93 % of control | dose: 25.0 mg/kg/injection, schedule: Q01DX009 (ip), vehicle: Klucel (hydroxypropylcellulose) (HPC) 88 % of control | [6] 98 % of control | [2] 88 % of control | [7] 98 % of control | dose: 50.0 mg/kg/injection, schedule: Q04DX002 (ip), vehicle: saline 107 % of control | [3] 89 % of control | dose: 100.0 mg/kg/injection, schedule: Q04DX002 (ip), vehicle: saline 101 % of control | dose: 200.0 mg/kg/injection, schedule: Q04DX002 (ip), vehicle: saline 99 % of control

O=C1C[N+]2(Cc3ccccc3)CCC1CC2
inactive: [5] 101 % of control | [6] 108 % of control | [7] 90 % of control

O=c1[nH]c(=O)n(-c2cccc3ccccc23)c(=O)n1-c1cccc2ccccc12
inactive: [2] 100 % of control | [3] 108 % of control | [4] 105 % of control

O=C1CCC2(O)[C@@H]3Cc4ccc(O)c5c4[C@]2(CCN3Cc2ccoc2)C1O5 (stereo partly specified)
inactive: [7] 124 % of control | dose: 66.0 mg/kg/injection, schedule: Q01DX009 (ip), vehicle: saline 107 % of control and 91 % of control | [8] 105 % of control and 121 % of control and 96 % of control | dose: 150.0 mg/kg/injection, schedule: Q01DX009 (ip), vehicle: saline 98 % of control and 116 % of control

CCc1c(NCCCl)c(C(=O)NCCCl)c2nc3ccccc3n2c1NCCCl
inactive: dose: 3.75 mg/kg/injection, schedule: Q01DX005 (ip), vehicle: saline with Tween-80 100 % of control | dose: 7.5 mg/kg/injection, schedule: Q01DX005 (ip), vehicle: saline with Tween-80 106 % of control | dose: 15.0 mg/kg/injection, schedule: Q01DX005 (ip), vehicle: saline with Tween-80 108 % of control

O=C1C2C3C=CC(C3)C2C(=O)C2(CO)OC12 (stereo unspecified)
inactive: dose: 62.5 mg/kg/injection, schedule: Q04DX002 (ip), vehicle: saline 97 % of control | dose: 125.0 mg/kg/injection, schedule: Q04DX002 (ip), vehicle: saline 95 % of control | dose: 250.0 mg/kg/injection, schedule: Q04DX002 (ip), vehicle: saline 97 % of control

O=C(O)c1ccccc1C(=O)O
inactive: dose: 12.5 mg/kg/injection, schedule: Q01DX009 (ip), vehicle: water 102 % of control | dose: 25.0 mg/kg/injection, schedule: Q01DX009 (ip), vehicle: water 102 % of control | dose: 50.0 mg/kg/injection, schedule: Q01DX009 (ip), vehicle: water 98 % of control | dose: 100.0 mg/kg/injection, schedule: Q01DX009 (ip), vehicle: water 92 % of control | dose: 200.0 mg/kg/injection, schedule: Q01DX009 (ip), vehicle: water 88 % of control

CC(C)(C)N=C(Cc1ccccc1)N1CCOCC1
inactive: [13] 119 % of control | [10] 96 % of control | [14] 90 % of control

CC(=O)OCC1OC([Se][As](C)C)C(OC(C)=O)C(OC(C)=O)C1OC(C)=O (stereo unspecified)
inactive: dose: 1.56 mg/kg/injection, schedule: Q01DX009 (ip), vehicle: saline with Tween-80 95 % of control | dose: 3.13 mg/kg/injection, schedule: Q01DX009 (ip), vehicle: saline with Tween-80 95 % of control | [11] 99 % of control | dose: 11.0 mg/kg/injection, schedule: Q01DX009 (ip), vehicle: saline with Tween-80 104 % of control | [12] 99 % of control | dose: 16.6 mg/kg/injection, schedule: Q01DX009 (ip), vehicle: saline with Tween-80 110 % of control | dose: 37.5 mg/kg/injection, schedule: Q01DX009 (ip), vehicle: saline with Tween-80 119 % of control

COc1cc2c(cc1OC)-c1nc(Nc3ccccc3)sc1CC2
inactive: [13] 106 % of control | [10] 106 % of control | [14] 89 % of control

C[C@@H]1C[C@H]2[C@@H]3CCC4=CC(=O)C=C[C@]4(C)[C@@]3(F)[C@@H](O)C[C@]2(C)[C@@]1(O)C(=O)CO
inactive: dose: 25.0 mg/kg/injection, schedule: Q01DX009 (ip), vehicle: saline sonified 100 % of control | dose: 50.0 mg/kg/injection, schedule: Q01DX009 (ip), vehicle: saline sonified 90 % of control

COC(=N)c1nnn(-c2ccccc2)n1
inactive: dose: 100.0 mg/kg/injection, schedule: Q04DX003 (ip), vehicle: Klucel (hydroxypropylcellulose) (HPC) 97 % of control | dose: 200.0 mg/kg/injection, schedule: Q04DX003 (ip), vehicle: Klucel (hydroxypropylcellulose) (HPC) 97 % of control | dose: 400.0 mg/kg/injection, schedule: Q04DX003 (ip), vehicle: Klucel (hydroxypropylcellulose) (HPC) 95 % of control

COc1cc2c(cc1OC)NCC1COc3c(ccc(OC)c3OC)C1=N2 (stereo unspecified)
inactive: [1] 96 % of control | dose: 100.0 mg/kg/injection, schedule: Q01DX005 (ip), vehicle: saline with Tween-80 88 % of control | dose: 200.0 mg/kg/injection, schedule: Q01DX005 (ip), vehicle: saline with Tween-80 92 % of control
